Test results from patent US20250026769A1, “PAPD5 INHIBITORS AND METHODS OF USE THEREOF” (The Children's Medical Center Corporation, priority 2021, published 2025).
Like-named read-outs stand apart in the source and are kept apart here.

Assays:
rPAPD5 = target: T1, rPAPD5 (Homo sapiens, UniProt Q8NDF8); experiment: differential scanning fluorimetry (DSF) binding and stabilization of rPAPD5; conditions: for ΔTm at 1 µM: read-out: ΔTm at 1 μM; for ΔTm at 100 µM: 100 μM test compound, read-out: ΔTm at 100 μM
T1 construct: made in house
T1 sequence (Q8NDF8 68-698 isoform Q8NDF8-5 limits assumed): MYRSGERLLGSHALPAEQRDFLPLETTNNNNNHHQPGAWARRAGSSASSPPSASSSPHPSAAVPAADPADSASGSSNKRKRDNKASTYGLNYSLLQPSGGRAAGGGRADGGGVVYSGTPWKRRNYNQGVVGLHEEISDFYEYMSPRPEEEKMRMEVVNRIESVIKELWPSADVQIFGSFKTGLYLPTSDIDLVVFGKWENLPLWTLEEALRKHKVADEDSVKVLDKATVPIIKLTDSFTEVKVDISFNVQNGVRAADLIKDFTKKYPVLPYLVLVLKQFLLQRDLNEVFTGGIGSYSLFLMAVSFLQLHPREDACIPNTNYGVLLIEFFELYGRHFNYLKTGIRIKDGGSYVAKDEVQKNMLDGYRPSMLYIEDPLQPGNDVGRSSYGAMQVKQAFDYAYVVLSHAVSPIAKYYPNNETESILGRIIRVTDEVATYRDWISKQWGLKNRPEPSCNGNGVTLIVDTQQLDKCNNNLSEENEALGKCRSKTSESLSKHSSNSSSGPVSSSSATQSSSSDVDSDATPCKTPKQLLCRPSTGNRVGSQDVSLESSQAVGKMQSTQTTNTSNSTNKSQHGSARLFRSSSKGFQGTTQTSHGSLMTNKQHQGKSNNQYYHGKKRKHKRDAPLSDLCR
Outline: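 Compound-induced shifts in rPAPD5 melting temperature were determined by thermal shift (DSF). Protein at […] was mixed with a non-extendable ATP analog […] in Tris-HCl (25 mM), MgCl2 (5 mM) and KCl (50 mM), with SYPRO orange at 1:5000. Curves were averages of three measurements analyzed with Thermal Shift software, and ΔTm was referenced to DMSO.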

[1] = test system: telomere length in DC patient iPSCs; experiment: telomere length / telomere elongation in DC patient iPSCs; type: cell-based, human; conditions: Homo sapiens, iPSC, read-out: iPSC-based Telomere length
Protocol: (§1) Compound 266A had activity ˜2-logs higher in the in vitro RNA oligoadenylation assay compared to the parental compound cmpd. 1, approximating the activity of RG7834 (FIG. 7). […] 1. Compounds 295A and 296A had activity 2-3 logs higher in DC patient iPSCs, showing TERC maturation at 1 nM, similar to RG7834 (FIG. 6). […] Referring to Table 1D, “+” refers to activity at 1 μM, “++” refers to activity above 1 nM and below 1 μM, and “+++” refers to activity at <1 nM, “ND” refers to not determined.

[2] = test system: TERC 3′ end processing in DC patient iPSCs; experiment: TERC 3′ end processing by RACE in DC patient / PARN-mutant iPSCs; type: cell-based, human; conditions: Homo sapiens, iPSC, read-out: iPSC-based RACE activity
Protocol: as §1

[3] = test system: hepatitis B surface antigen (HBSAg) from HepG2.2.15 cells, a hepatitis B virus-expressing cell line; experiment: HBsAg ELISA in supernatant of HepG2.2.15 cells; type: cell-based; conditions: HepG2.2.15, 96 h
Protocol: HepG2.2.15 cells, a hepatitis B virus-expressing cell line (Sells, M. A. et al., PNAS, 1987), were plated at 50,000 cells/well in DMEM/F12 media (Gibco) with 10% fetal bovine serum (Omega Scientific) in a 24-well or 96-well plate (Corning), in 2-3 replicates for each test compound/concentration plus controls, and incubated in a humidified 5% CO2 chamber at 37° C. The next day, media was aspirated, cells were washed once with phosphate buffered saline, pH7.4 (Gibco), and 1 mL DMEM/12 media was replaced. Test compounds were added in 3-fold dilutions from up to 100 μM down to 333 pM, with vehicle (dimethylsulfoxide (Sigma)) as a control. After four days of culture in a humidified 5% CO2 chamber at 37° C., plates were spun down in a centrifuge at 300 g for 10 minutes at room temperature. Supernatant from each well was collected and either frozen at −20° C. or used directly for quantitation of hepatitis B surface antigen (HBSAg) in an enzyme-linked immunosorbent assay (ELISA). The supernatant was tested using the HBSAg ELISA kit (Abnova Cat. No KA0286) per the manufacturer's instructions. Results of replicates were averaged and nonlinear curve fitting was used to determine the half maximal inhibitory concentration (IC50) for each test compound.

[4] = test system: TERC 3′ end processing in primary CD34+ human hematopoietic stem and progenitor cells (HSPCs); experiment: TERC 3′ end processing (RACE) in CRISPR/Cas9-engineered PARN-deficient primary CD34+ HSPCs; type: cell-based; conditions: for TERC 3′ end processing by RACE at 100 nM: day 5 (FIG. 40B); for TERC 3′ end processing by RACE at 1 μM: day 5 (FIG. 40A)
From the text: Example 167—Restoration of TERC 3′ end processing in primary CD34+ human hematopoietic stem and progenitor cells (HSPCs). To determine the efficacy of exemplified compounds in a disease-relevant stem cell population, we employed a highly-efficient CRISPR-Cas9 ribonucleoprotein transduction strategy to disrupt the PARN gene in primary human CD34+ hematopoietic stem and progenitor cells (HSPCs), or the control locus AAVS1. FIGS. 40A and 40B show extended TERC forms in CRISPR-Cas9 engineered HSPCs deficient in PARN.

[5] = 10 μM test compound (Table 2a), read-out: ΔTm at 10 μM
[6] = 10 μM test compound, shift vs DMSO control, read-out: ΔTm (Table 2, starred: the compound was tested at 10 μM)
[7] = patient iPSCs, concentration class at which activity is seen

| SMILES | ΔTm at 1 µM (rPAPD5; 1 μM test compound (Table 2a)) [°C] | ΔTm at 10 µM (rPAPD5; [5]) [°C] | ΔTm at 10 µM (rPAPD5; [6]) [°C] | minimal effective concentration [1, 7] [µM] | minimal effective concentration [2, 7] [µM] | IC50 [3] [nM] | TERC 3′ end processing by RACE at 100 nM [4] | TERC 3′ end processing by RACE at 1 μM [4] | ΔTm at 100 µM (rPAPD5; shift vs DMSO control) [°C] | ΔTm at 10 µM (rPAPD5; read-out: ΔTm (Table 2, starred: the compound was tested at 10 μM)) [°C] | ΔTm at 1 µM (rPAPD5) [°C] | ΔTm at 10 µM (rPAPD5; read-out: ΔTm at 10 μM) [°C] | minimal effective concentration [1] [µM] | minimal effective concentration [2] [µM] |
| --- | --- | --- | --- | --- | --- | --- | --- | --- | --- | --- | --- | --- | --- | --- |
| O=C(O)c1cc(Cl)ccc1Nc1c(N2CCC(F)(F)CC2)cnc2ccc(Cl)cc12 [Compound 340A, 5-chloro-2-[[6-chloro-3-(4,4-difluoro-1-piperidyl)-4-quinolyl]amino]benzoic acid] | > 5 | > 5 | > 5 | < 0.001 | < 0.001 | 50 | maturation of TERC 3′ end processing | maturation of TERC 3′ end processing | – | – | – | – | – | – |
| O=C(O)c1cc(Cl)ccc1Nc1c(S(=O)(=O)N2CCC(F)(F)CC2)cnc2ccc(Cl)cc12 [Compound 345A, 5-chloro-2-[[6-chloro-3-[(4,4-difluoro-1-piperidyl)sulfonyl]-4-quinolyl]amino]benzoic acid] | > 5 | > 5 | – | < 0.001 | 0.001 to 1 | 523 | – | – | > 5 | – | – | – | – | – |
| O=C(O)c1cc(Cl)ccc1Nc1c(S(=O)(=O)N2CCSCC2)cnc2ccc(Cl)cc12 [Compound 349A, 5-chloro-2-[(6-chloro-3-thiomorpholinosulfonyl-4-quinolyl)amino]benzoic acid] | > 5 | > 5 | – | < 0.001 | 0.001 to 1 | 160 | – | – | > 5 | – | – | – | – | – |
| O=C(O)c1cc(Cl)ccc1Nc1c(-c2cnco2)cnc2ccc(Cl)cc12 [Compound 353A, 5-chloro-2-[(6-chloro-3-oxazol-5-yl-4-quinolyl)amino]benzoic acid] | 1 to 5 | > 5 | – | < 0.001 | 0.001 to 1 | 438 | – | – | > 5 | – | – | – | – | – |
| CN1CCN(c2cnc3ccc(Cl)cc3c2Nc2ccc(Cl)cc2C(=O)O)CC1 [Compound 361A, 5-chloro-2-[[6-chloro-3-(4-methylpiperazin-1-yl)-4-quinolyl]amino]benzoic acid] | > 5 | > 5 | – | < 0.001 | 0.001 to 1 | 311 | – | – | > 5 | – | – | – | – | – |
| O=C(O)c1cc(Cl)ccc1Nc1c(CN2CCOCC2)cnc2ccc(Cl)cc12 [Compound 371A, 5-chloro-2-[[6-chloro-3-(morpholinomethyl)-4-quinolyl]amino]benzoic acid] | > 5 | > 5 | – | < 0.001 | 0.001 to 1 | 145 | maturation of TERC 3′ end processing | maturation of TERC 3′ end processing | > 5 | – | – | – | – | – |
| O=C(O)c1cc(Cl)ccc1Nc1c(-c2ccncc2)cnc2ccc(Cl)cc12 [Compound 391A, 5-chloro-2-[[6-chloro-3-(4-pyridyl)-4-quinolyl]amino]benzoic acid] | 1 to 5 | > 5 | – | < 0.001 | 0.001 to 1 | 735 | – | – | > 5 | – | – | – | – | – |
| O=C(O)c1cc(Cl)ccc1Nc1c(N2CCC(Cl)CC2)cnc2ccc(Cl)cc12 [Compound 393A, 5-chloro-2-((6-chloro-3-(4-chloropiperidin-1-yl)quinolin-4-yl)amino)benzoic acid] | > 5 | > 5 | > 5 | < 0.001 | < 0.001 | 282 | maturation of TERC 3′ end processing | – | – | – | – | – | – | – |
| O=C(O)c1cc(Cl)ccc1Nc1c(C2CCC(=NO)CC2)cnc2ccc(Cl)cc12 (stereo not shown) [Compound 396A, 5-chloro-2-[[6-chloro-3-(4-hydroxyiminocyclohexyl)-4-quinolyl]amino]benzoic acid] | < 1 | > 5 | – | < 0.001 | < 0.001 | – | maturation of TERC 3′ end processing | maturation of TERC 3′ end processing | > 5 | – | – | – | – | – |
| O=C1CCC(c2cnc3ccc(Cl)cc3c2Nc2ccc(Cl)cc2C(=O)O)CC1 [Compound 404A, 5-chloro-2-[[6-chloro-3-(4-oxocyclohexyl)-4-quinolyl]amino]benzoic acid] | > 5 | > 5 | > 5 | < 0.001 | < 0.001 | 35 | maturation of TERC 3′ end processing | – | – | – | – | – | – | – |
| Cc1cc(Cl)cc2c(Nc3ccc(Cl)cc3C(=O)O)c(S(=O)(=O)N3CCSCC3)cnc12 [Compound 417A, 5-chloro-2-[(6-chloro-8-methyl-3-thiomorpholinosulfonyl-4-quinolyl)amino]benzoic acid] | – | – | – | – | – | 71 | – | maturation of TERC 3′ end processing | – | > 5 | > 5 | > 5 | < 0.001 | < 0.001 |
| COc1cc(Cl)cc2c(Nc3ccc(Cl)cc3C(=O)O)c(S(=O)(=O)N3CCSCC3)cnc12 [Compound 418A, 5-chloro-2-[(6-chloro-8-methoxy-3-thiomorpholinosulfonyl-4-quinolyl)amino]benzoic acid] | > 5 | > 5 | – | < 0.001 | < 0.001 | 112 | – | – | > 5 | – | – | – | – | – |
| O=C(O)c1cc(Cl)ccc1Nc1c(S(=O)(=O)N2CCSCC2)cnc2c(Cl)cc(Cl)cc12 [Compound 420A, 5-chloro-2-[(6,8-dichloro-3-thiomorpholinosulfonyl-4-quinolyl)amino]benzoic acid] | > 5 | > 5 | > 5 | < 0.001 | < 0.001 | 100 | – | maturation of TERC 3′ end processing | – | – | – | – | – | – |
| O=C(O)c1cc(Cl)ccc1Nc1c(S(=O)(=O)N2CCSCC2)cnc2c(F)cc(Cl)cc12 [Compound 421A, 5-chloro-2-[(6-chloro-8-fluoro-3-thiomorpholinosulfonyl-4-quinolyl)amino]benzoic acid] | > 5 | > 5 | – | < 0.001 | < 0.001 | – | – | maturation of TERC 3′ end processing | > 5 | – | – | – | – | – |
| O=C(O)c1cc(Cl)ccc1Nc1c(CN2CCSCC2)cnc2ccc(Cl)cc12 [Compound 428A, 5-chloro-2-[[6-chloro-3-(thiomorpholinomethyl)-4-quinolyl]amino]benzoic acid] | > 5 | > 5 | – | < 0.001 | < 0.001 | 22 | – | maturation of TERC 3′ end processing | > 5 | – | – | – | – | – |
